Test results reported in patent US8895571B2, “Isoindolinone and pyrrolopyridinone derivatives as Akt inhibitors” (Incyte Corporation, priority 2011, dated 2014).

What was measured:
Full length Akt1 = target: T1, Full length Akt1 (Homo sapiens, UniProt P31749); experiment: In vitro Akt kinase enzymatic assay (HTRF), Akt1; assay type: biochemical; conditions: 0.4 nM Akt1, substrate solution with 5 mM ATP, 25° C. 1 hr
T1 construct: Full length Akt1 (cat #P2999); purchased PerkinElmer P2999
Method in brief: (§1)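 Full-length enzyme (0.4 nM Akt1 or 0.6 nM Akt2/Akt3 in the enzyme solution) was combined with a substrate solution of 0.1 μM ULight-Crosstide plus 5 mM ATP in pH 7.8 HEPES/MgCl2/DTT/Tween20 buffer and reacted 1 hr at 25° C. The EDTA stop contained Eu anti-phospho-Crosstide; IC50 was fitted from 11-point HTRF inhibition curves.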

Full length Akt2 = target: T2, Full length Akt2 (Homo sapiens, UniProt P31751); experiment: In vitro Akt kinase enzymatic assay (HTRF), Akt2; assay type: biochemical; conditions: 0.6 nM Akt2, substrate solution with 5 mM ATP, 25° C. 1 hr
T2 construct: Full length Akt1 (cat #P2999), Akt2 (cat #PV3184); purchased PerkinElmer PV3184
T2 sequence (P31751 whole entry): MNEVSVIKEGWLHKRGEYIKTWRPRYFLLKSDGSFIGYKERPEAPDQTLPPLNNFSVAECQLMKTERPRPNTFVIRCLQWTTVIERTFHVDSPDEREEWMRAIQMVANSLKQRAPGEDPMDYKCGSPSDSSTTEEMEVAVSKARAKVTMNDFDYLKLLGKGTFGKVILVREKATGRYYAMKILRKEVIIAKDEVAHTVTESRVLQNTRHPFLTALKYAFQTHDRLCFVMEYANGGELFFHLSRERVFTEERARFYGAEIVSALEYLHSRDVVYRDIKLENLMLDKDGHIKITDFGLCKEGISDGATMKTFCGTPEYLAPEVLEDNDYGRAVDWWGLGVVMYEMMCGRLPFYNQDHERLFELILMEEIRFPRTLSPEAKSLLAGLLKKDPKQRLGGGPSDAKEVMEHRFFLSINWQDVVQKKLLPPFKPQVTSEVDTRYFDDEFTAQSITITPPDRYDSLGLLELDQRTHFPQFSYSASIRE
Method in brief: as §1

Full length Akt3 = target: T3, Full length Akt3 (Homo sapiens, UniProt Q9Y243); experiment: In vitro Akt kinase enzymatic assay (HTRF), Akt3; assay type: biochemical; conditions: 0.6 nM Akt3, substrate solution with 5 mM ATP, 25° C. 1 hr
T3 construct: Full length Akt1 (cat #P2999), Akt2 (cat #PV3184), Akt3 (cat #PV3185); purchased PerkinElmer PV3185
T3 sequence (Q9Y243 whole entry): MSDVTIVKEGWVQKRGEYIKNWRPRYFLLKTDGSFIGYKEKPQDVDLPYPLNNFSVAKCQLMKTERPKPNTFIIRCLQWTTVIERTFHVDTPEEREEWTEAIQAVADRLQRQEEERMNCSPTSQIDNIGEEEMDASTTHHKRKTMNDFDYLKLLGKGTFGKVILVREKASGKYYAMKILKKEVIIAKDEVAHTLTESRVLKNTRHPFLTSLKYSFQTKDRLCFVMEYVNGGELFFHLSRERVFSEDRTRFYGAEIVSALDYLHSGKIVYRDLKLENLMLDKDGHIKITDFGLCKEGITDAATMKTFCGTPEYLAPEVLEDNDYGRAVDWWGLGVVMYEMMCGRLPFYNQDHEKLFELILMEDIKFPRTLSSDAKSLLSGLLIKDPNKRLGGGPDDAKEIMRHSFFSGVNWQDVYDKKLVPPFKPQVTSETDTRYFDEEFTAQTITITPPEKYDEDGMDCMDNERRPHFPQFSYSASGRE
Method in brief: as §1

Full length PKA = target: T4, Full length PKA (Homo sapiens, UniProt P17612); experiment: PKA in vitro enzymatic assay (HTRF); assay type: biochemical; conditions: 0.035 nM enzyme solution, substrate solution with 5 mM ATP, 25° C. 1 hr
T4 construct: Full length PKA (cat #P2912); purchased Invitrogen P2912
Method in brief: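 IC50 came from curve fitting of percent inhibition across an 11-point, 3-fold compound series, with HTRF read after EDTA quench and Tb-labelled p-S133 antibody detection. Enzyme (0.035 nM solution) and substrate (0.1 μM fluorescein-CREBtide solution containing 5 mM ATP) reacted for 1 h at 25°C. The buffer was HEPES 50 mM pH 7.8 with 10 mM MgCl2, 5 mM DTT and 0.005% Tween20.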

[1] = system: LNCaP cells (human prostate tumor cell line); experiment: Akt LNCaP proliferation assay (MTS); assay type: cell-based; conditions: 48 hours
Procedure: LNCaP cells (human prostate tumor cell line) were plated in 96 well plates (COSTAR, Corning, N.Y.) in 50 μL at 10,000 cells/well in RPMI (Media Tech, Manassas, Va.), 2% fetal bovine serum (Hyclone/Thermo, Logan, Utah) and incubated overnight at 37° C., 5% CO2. […] of compound solution were added at final concentrations of 1000 nM to 0.5 nM in 3 fold dilutions for IC50 determination and plates further incubated for 48 hours. 100 μL of Cell Titer 96® Aqueous reagent, from an MTS colorimetric method for determining the number of viable cells in proliferation (Cell titer 96, Promega, Madison, Wis.) was added for 2 hours at 37° C., 5% CO2. Each plate was mixed well and read on a SpectroMax M5 automated plate reader (Molecular Devices, Sunnyvale Calif.). The ability of the compound to inhibit proliferation was reported as the inhibitor concentration required for 50% inhibition (IC50 values) of total cell proliferation. See Table 8 for data related to compounds of the examples.

[2] = 2% fetal bovine serum, class symbols

T1 sequence (P31749 whole entry): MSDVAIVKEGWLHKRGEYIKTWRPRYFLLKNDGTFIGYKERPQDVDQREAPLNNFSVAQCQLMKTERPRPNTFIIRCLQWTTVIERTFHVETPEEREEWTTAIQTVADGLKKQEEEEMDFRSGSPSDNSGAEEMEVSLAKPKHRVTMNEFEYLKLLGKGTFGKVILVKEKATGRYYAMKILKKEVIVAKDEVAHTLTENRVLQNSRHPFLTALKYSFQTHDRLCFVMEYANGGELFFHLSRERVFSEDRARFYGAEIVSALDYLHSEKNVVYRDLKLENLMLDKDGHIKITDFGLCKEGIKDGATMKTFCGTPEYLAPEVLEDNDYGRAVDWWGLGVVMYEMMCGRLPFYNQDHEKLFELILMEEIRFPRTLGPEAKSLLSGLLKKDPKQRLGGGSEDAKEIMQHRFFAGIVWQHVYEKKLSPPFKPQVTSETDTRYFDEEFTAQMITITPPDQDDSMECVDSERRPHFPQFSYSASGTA

IC50 (Full length Akt1) [nM] | IC50 (Full length Akt2) [nM] | IC50 (Full length Akt3) [nM] | IC50 (Full length PKA) [nM] | IC50 [1, 2] [nM] | IC50 ([1]; given as a bound, final concentrations 1000 nM to 0.5 nM) [nM] | Compound
< 500 | < 500 | < 500 | > 5000 | < 500 | – | Cn1ncc(Cl)c1-c1ccc2c(c1)CN([C@H](CN)Cc1cccc(C#N)c1)C2=O [Example 62, 3-{(2S)-3-amino-2-[5-(4-chloro-1-methyl-1H-pyrazol-5-yl)-1-oxo-1,3-dihydro-2H-isoindol-2-yl]propyl}benzonitrile]
< 500 | < 500 | < 500 | > 5000 | < 500 | – | CCn1nccc1-c1ccc2c(c1)CN([C@H](CN)Cc1cccc(F)c1)C2=O [Example 127, 2-[(1S)-2-amino-1-(3-fluorobenzyl)ethyl]-5-(1-ethyl-1H-pyrazol-5-yl)isoindolin-1-one]
< 500 | < 500 | < 500 | 500 to 5000 | < 500 | – | Cc1cnn(C)c1-c1cc2c(cn1)C(=O)N([C@H](CN)Cc1cccc(F)c1)C2 [Example 94, 2-[(1S)-2-amino-1-(3-fluorobenzyl)ethyl]-6-(4-methyl-1-methyl-1H-pyrazol-5-yl)-1,2-dihydro-3H-pyrrolo[3,4-c]pyridin-3-one]
< 500 | < 500 | < 500 | 500 to 5000 | < 500 | – | Cn1nccc1-c1ccc2c(c1)CN([C@H](CN)Cc1cc(F)cc(F)c1)C2=O [Example 40, 2-[(1S)-2-amino-1-(3,5-difluorobenzyl)ethyl]-5-(1-methyl-1H-pyrazol-5-yl)isoindolin-1-one]
< 500 | < 500 | < 500 | > 5000 | < 500 | – | Cn1nccc1-c1ccc2c(c1)CN([C@H](CN)Cc1csc3ccccc13)C2=O [Example 76, 2-[(1S)-2-amino-1-(1-benzothien-3-ylmethyl)ethyl]-5-(1-methyl-1H-pyrazol-5-yl)isoindolin-1-one]
< 500 | < 500 | < 500 | > 5000 | < 500 | – | CCCOCc1cnn(C)c1-c1cc2c(cn1)C(=O)N([C@H](CN)Cc1cc(F)cc(F)c1)C2 [Example 107, 2-[(1S)-2-amino-1-(3,5-difluoro-benzyl)ethyl]-6-[4-(1-propoxy-methyl)-1-methyl-1H-pyrazol-5-yl]-1,2-dihydro-3H-pyrrolo[3,4-c]pyridin-3-one]
< 500 | < 500 | < 500 | 500 to 5000 | < 500 | – | Cn1ncc(Cl)c1-c1cc2c(cn1)C(=O)N([C@H](CN)Cc1ccccc1)C2 [Example 100, 2-((1S)-2-amino-1-benzylethyl)-6-(4-chloro-1-methyl-1H-pyrazol-5-yl)-1,2-dihydro-3H-pyrrolo[3,4-c]pyridin-3-one]
< 500 | < 500 | < 500 | 500 to 5000 | < 500 | – | Cn1ncc(Cl)c1-c1cc2c(cn1)C(=O)N([C@H](CN)Cc1cc(F)cc(F)c1)C2 [Example 101, 2-[(1S)-2-amino-1-(3,5-difluorobenzyl)ethyl]-6-(4-chloro-1-methyl-1H-pyrazol-5-yl)-1,2-dihydro-3H-pyrrolo[3,4-c]pyridin-3-one]
< 500 | < 500 | < 500 | 500 to 5000 | < 500 | – | Cn1ncc(F)c1-c1ccc2c(c1)CN([C@H](CN)Cc1cccc(F)c1)C2=O [Example 11, 2-[(1S)-2-amino-1-(3-fluorobenzyl)ethyl]-5-(4-fluoro-1-methyl-1H-pyrazol-5-yl)isoindolin-1-one]
> 5000 | > 5000 | > 5000 | > 5000 | – | > 1000 | Cn1ncc(Cl)c1-c1ccc2c(c1)CN([C@H](CN)Cc1cccc(-c3ccncc3)c1)C2=O [Example 72, 2-[(1S)-2-amino-1-(3-pyridin-4-ylbenzyl)ethyl]-5-(4-chloro-1-methyl-1H-pyrazol-5-yl)isoindolin-1-one]
< 500 | 500 to 5000 | 500 to 5000 | > 5000 | 500 to 5000 | – | CSCc1cnn(C)c1-c1ccc2c(c1)CN([C@H](CN)Cc1cccc(F)c1)C2=O [Example 10]
< 500 | < 500 | < 500 | 500 to 5000 | < 500 | – | Cn1ncc(Cl)c1-c1ccc2c(c1)CN([C@H](CN)Cc1ccsc1)C2=O [Example 68, 2-[(1S)-2-amino-1-(3-thienylmethyl)ethyl]-5-(4-chloro-1-methyl-1H-pyrazol-5-yl)isoindolin-1-one]
< 500 | < 500 | < 500 | > 5000 | < 500 | – | COCc1cnn(C)c1-c1ccc2c(c1)CN([C@H](CN)Cc1cc(F)cc(F)c1)C2=O [Example 43, 2-[(1S)-2-amino-1-(3,5-difluorobenzyl)ethyl]-5-(4-methoxymethyl-1-methyl-1H-pyrazol-5-yl)isoindolin-1-one]
< 500 | 500 to 5000 | 500 to 5000 | > 5000 | 500 to 5000 | – | COCc1cnn(C)c1-c1ccc2c(c1)CN([C@H](CN)CC1CCCCC1)C2=O [Example 133, 2-[(1S)-2-amino-1-(cyclohexylmethyl)ethyl]-5-[4-(methoxymethyl)-1-methyl-1H-pyrazol-5-yl]isoindolin-1-one]
< 500 | < 500 | < 500 | 500 to 5000 | < 500 | – | Cn1nccc1-c1ccc2c(c1)CN([C@H](CN)CC1CCCCC1)C2=O [Example 131, 2-[(1S)-2-amino-1-(cyclohexylmethyl)ethyl]-5-(1-methyl-1H-pyrazol-5-yl)isoindolin-1-one]
500 to 5000 | < 500 | 500 to 5000 | > 5000 | < 500 | – | Cn1nccc1-c1ccc2c(c1)CN([C@H](CN)Cc1cccc(C#N)c1)C2=O [Example 75, 3-{(2S)-3-amino-2-[5-(1-methyl-1H-pyrazol-5-yl)-1-oxo-1,3-dihydro-2H-isoindol-2-yl]propyl}benzonitrile]
< 500 | < 500 | < 500 | > 5000 | < 500 | – | CCSCc1cnn(C)c1-c1ccc2c(c1)CN([C@H](CN)Cc1cc(F)cc(F)c1)C2=O [Example 50, 2-[(1S)-2-amino-1-(3,5-difluorobenzyl)ethyl]-5-[4-(ethylthio)methyl-1-methyl-1H-pyrazol-5-yl]isoindolin-1-one]

Compound | IC50 (Full length Akt1) [nM] | IC50 (Full length Akt2) [nM] | IC50 (Full length Akt3) [nM] | IC50 (Full length PKA) [nM] | IC50 [1, 2] [nM] | IC50 ([1]; given as a bound, final concentrations 1000 nM to 0.5 nM) [nM]
Cn1ncc(COC2CCC2)c1-c1cc2c(cn1)C(=O)N([C@H](CN)Cc1cc(F)cc(F)c1)C2 [Example 108, 2-[(1S)-2-amino-1-(3,5-difluoro-benzyl)ethyl]-6-[4-(cyclobutoxy-methyl)-1-methyl-1H-pyrazol-5-yl]-1,2-dihydro-3H-pyrrolo[3,4-c]pyridin-3-one] | < 500 | < 500 | < 500 | 500 to 5000 | < 500 | –
Cn1ncc(COC2CCC2)c1-c1ccc2c(c1)CN([C@H](CN)Cc1cc(F)cc(F)c1)C2=O [Example 47, 2-[(1S)-2-amino-1-(3,5-difluorobenzyl)ethyl]-5-[4-(cyclobutoxymethyl)-1-methyl-1H-pyrazol-5-yl]isoindolin-1-one] | < 500 | < 500 | < 500 | 500 to 5000 | < 500 | –
